According to US20100305303A1, “INHIBITING AGENT FOR INHIBITION OF ANGIOGENESIS, A METHOD FOR PREPARING THE AGENT, A METHOD FOR MODIFYING THE AGENT AND ITS USE FOR MANUFACTURING A MEDICAMENT FOR TREATING TUMOR” (priority 2007, published 2010):
Residues, ends and D or L forms follow the SMILES beside them. No end group written: not given here. *: point of attachment. Palmitoyl = CCCCCCCCCCCCCCCC(=O)*

Key:
[1] = test system: Bel-7402 tumor cells; experiment: Binding of FITC labeled polypeptides to integrin-expressing tumor cells by flow cytometry; set-up: unit not given here; conditions: FITC labeled polypeptide, dosage 1 μg/μl, Bel-7402 cells, 25 min
Procedure: Analysis of the binding of polypeptide s and integrin by flow cytometry. Bel-7402 tumor cells were used, which can express integrin. The cells were cultured in a 24-well plate, and the cells were collected and washed with ice-cold PBS twice. Before labeling, the cells were suspended in PBS +1% BSA, maintained for 30 min, added with 1 μl FITC labeled polypeptide s (P1, P2, P3, P4, P5, P6, P7, P8, P9, P10, P11, P12, P13, P14, P15, P16, RGD and ES-2) for reaction for 25 min. After labeling, the cells were collected and washed twice with PBS, suspended again in 400 μl PBS and analysis was conducted with a flow cytometry (Becton Dickinson, USA). FITC fluorescence was determined at FL1 channel The cells with FITC feature would be further analyzed.

[2] = Half-life of polypeptides in plasma at 37° C. (HPLC); type: in vitro ADME; conditions: 800 μg/ml, 20 μl injected on HPLC
Procedure: Survey on the half-life of polypeptides in plasma at 37° C. after modification. Preparation of blood drug samples: after crude drug (volume V) (800 ug/ml) +1V plasma were mixed and diluted with 2V water evenly, incubated for 0, 5, 30 min at 37° C. respectively, immediately heated at 80° C. for 30 min; the negative control: after 1V plasma were diluted and mixed with 3 V water evenly, and heated for 30 min at 80° C. The positive control group: after 1V crude drug (800 ug/ml) were diluted and mixed evenly with 3V water, heated for 30 min at 80° C. The samples were the modified products, […] at 14000 rpm for 10 min. The supernatant was fetched for HPLC analysis with the injection size of 20 ul.

[3] = test system: NIH 3T3 cells; experiment: Cell proliferation analysis on non-endothelial cells; type: cell-based; conditions: non-endothelial NIH 3T3 cells, 48 h
Procedure: The culture of BCE cells and NIH 3T3 cells, method: the culture solution DMEM contained 10% inactivated calf serum (BCS), 1% antibiotics and 3 ng/ml bFGF. Cell proliferation analysis method is as follows: washed the cells with PBS, digested with trypsin, added with culture solution suspension cells and centrifuged and collected cells, and regulated the cell concentrations to 25,000 cells/ml. The cells were moved to 6-well plates (0.5 ml/well) and cultured for 24 h. Replaced the culture medium as 1 ml DMEM, 5% BCS, 1% antibiotics, 1 ng/ml bFGF. Different doses of samples were added to each hole, and further cultured for 48 h, digested the cells with trypsase, re-suspended in PBS, fixed with 70% ice-cold ethanol and stained with 7-AAD, and then conducted analysis with flow cytometry.

[4] = test system: B16F10 melanoma cells; experiment: In vivo anti-tumor test, B16F10 melanoma; conditions: B16F10 in C57BL/6 mice, 5 mg/kg/d contralateral subcutaneous injection, 9th day
Procedure: The cultured B16F10 melanoma cells were treated with 0.05% trypsin, centrifuged at 1000 rpm for 5 min, suspended again in PBS, inoculated subcutaneously with 0.1 ml of 5×10^5 cells at the body sides of C57BL/6 mice (6-8 weeks). When the average tumor size reached 200 mm3-300 mm3, the mice were randomly divided into two groups, 7 mice for each group, of which, one group of mice were treated with RGD-ED, and the other group were treated with ED not containing RGD, with the doses of 5 mg/kg/d for the two groups, and the control group of mice were subject to PBS injection. The treatment method was contralateral subcutaneous injection of the inoculated tumors.

[5] = test system: human liver cancer SGC7901; experiment: In vivo anti-tumor test, SGC7901 xenograft; conditions: SGC7901 in nude mice, 3 mg/kg/d contralateral subcutaneous injection, 10th day
Procedure: (§1) The cultured human liver cancer SGC7901 was treated with 0.05% trypsin, centrifuged at 1000 rpm for 5 min, suspended again in PBS, inoculated subcutaneously with 0.1 ml of 5×10^5 cells on the body sides of nude mice (6-8 weeks). When the average tumor size reached 100 mm^3-200 mm^3, the mice were randomly divided into three groups, 7 mice for each group, of which, one group of mice were treated with RGD-ED, one group were treated with RGD-ED modified with liposome, and the third group were treated with RGD-ED modified with polyethylene glycol, with the doses of 3 mg/kg/d for the three groups, and the control group of mice were subject to PBS injection. The treatment method was contralateral subcutaneous injection of the inoculated tumors.
as §1, with “with liposome-modified RGD-ED,” for “with RGD-ED modified with liposome,”, “with” for “with RGD-ED modified with”, “polyethylene glycol-modified RGD-ED,” for “polyethylene glycol,”, “injection. […]” for “injection. The treatment method was contralateral subcutaneous injection of the inoculated tumors.”

[6] = test system: CAMs; experiment: CAM analysis of anti-angiogenic activity; type: in vivo, chick
Procedure: To detect the in vivo anti-angiogenic activity, CAM analysis was carried out. All the tests were carried out on the ultra-clean platform under sterile conditions. The 6-day disinfected chick embryos were cultured under the condition of 37° C., 90% humidity. After 2 days, the top of each egg was punched and the reagents were dripped into the sterile Whatman filter paper, then put on the CAMs vascular clustered area, cultivated for 48 hours, and observed the chick embryos and CAMs and took pictures.

Molecule | Binding Value [1] | further results
RGDIVRRADRAAVPRGD [P5] | 59.40 | 
Arg-Gly-Asp-Ile-Val-Arg-Arg-Ala-Asp-Arg-Ala-Ala-Val-Pro-linker-Arg-Gly-Asp [P7] | 60.25 | 
Arg-Gly-Asp-linker-Ile-Val-Arg-Arg-Ala-Asp-Arg-Ala-Ala-Val-Pro-linker-Arg-Gly-Asp [P6] | 60.27 | 
arginine-glycine-aspartic acid [RGD, reference compound] | 59.45 | 
Ile-Val-Arg-Arg-Ala-Asp-Arg-Ala-Ala-Val-Pro-linker-Ala-Cys-Asp-Cys-Arg-Gly-Asp-Cys-Phe-Cys [P11] | 60.20 | 
CCCCCCCCCCCCCCCC(=O)N[C@@H](CCCNC(=N)N)C(=O)NCC(=O)N[C@@H](CC(=O)O)C(=O)NCC(=O)NCC(=O)NCC(=O)NCC(=O)N[C@H](C(=O)N[C@H](C(=O)N[C@@H](CCCNC(=N)N)C(=O)N[C@@H](CCCNC(=N)N)C(=O)N[C@@H](C)C(=O)N[C@@H](CC(=O)O)C(=O)N[C@@H](CCCNC(=N)N)C(=O)N[C@@H](C)C(=O)N[C@@H](C)C(=O)N[C@H](C(=O)N1CCC[C@H]1C(=O)O)C(C)C)C(C)C)[C@@H](C)CC [Palmitic acid-modified substance] (Palmitoyl-RGDGGGGIVRRADRAAVP-OH; C-terminus assumed) |  | half-life [2]: 12 min
RGDIVRRADRAAVP [P2] | 62.15 | 
Ala-Cys-Asp-Cys-Arg-Gly-Asp-Cys-Phe-Cys-linker-Ile-Val-Arg-Arg-Ala-Asp-Arg-Ala-Ala-Val-Pro [P9] | 66.04 | 
Ile-Val-Arg-Arg-Ala-Asp-Arg-Ala-Ala-Val-Pro-linker-Arg-Gly-Asp [P3] | 58.96 | 
ACDCRGDCFCIVRRADRAAVP (cysteine pairing not given here) [P10] | 63.28 | 
Ala-Cys-Asp-Cys-Arg-Gly-Asp-Cys-Phe-Cys-Ile-Val-Arg-Arg-Ala-Asp-Arg-Ala-Ala-Val-Pro-linker-Ala-Cys-Asp-Cys-Arg-Gly-Asp-Cys-Phe-Cys [P15] | 64.11 | 
Ala-Cys-Asp-Cys-Arg-Gly-Asp-Cys-Phe-Cys-linker-Ile-Val-Arg-Arg-Ala-Asp-Arg-Ala-Ala-Val-Pro-linker-Ala-Cys-Asp-Cys-Arg-Gly-Asp-Cys-Phe-Cys [P16] | 66.12 | 
IVRRADRAAVPRGD [P4] | 60.13 | 
RGDGGGGIVRRADRAAVP [P1] | 63.21 | half-life [2]: 7 min
IVRRADRAAVPACDCRGDCFC (cysteine pairing not given here) [P12] | 67.28 | 
ACDCRGDCFCIVRRADRAAVPACDCRGDCFC (cysteine pairing not given here) [P13] | 59.25 | 
Arg-Gly-Asp-linker-Ile-Val-Arg-Arg-Ala-Asp-Arg-Ala-Ala-Val-Pro-Arg-Gly-Asp [P8] | 58.30 | 
designed angiogenesis inhibitor: ED polypeptide joined to a sequence containing Arg-Gly-Asp, expressed recombinantly in E. coli; exact sequence not stated [RGD-ED] |  | inhibitory effect on NIH 3T3 cell proliferation [3]: no inhibitory effect; tumor inhibition rate [4]: 58%; tumor inhibition rate [5]: 68%; inhibition of neovascularization and angiogenesis in CAM ([6]; 0.05 μg, 0.1 μg and 0.2 μg, 48 hours): significantly inhibit; chick embryo death in CAM test ([6]; 0.5 μg): cause chick embryo death; inhibition of angiogenesis in CAM ([6]; 0.5 μg, 48 hours): completely inhibit
IVRRADRAAVP [ED, reference compound] | 18.35 | tumor inhibition rate [4]: 28%
Ala-Cys-Asp-Cys-Arg-Gly-Asp-Cys-Phe-Cys-linker-Ile-Val-Arg-Arg-Ala-Asp-Arg-Ala-Ala-Val-Pro-Ala-Cys-Asp-Cys-Arg-Gly-Asp-Cys-Phe-Cys [P14] | 58.32 | 
